Measurements as given in patent US10583120B2, “Composition having a muscle-relaxant and anti-inflammatory activity” (Kolinpharma S.p.A., priority 2014, dated 2020).

Assays:
THP-1 cells = conditions: positive controls at 100 μM
Excerpt: The absorbance measured correlates directly with the number of live cells.

[1] = tested on: IL-1β release from differentiated THP-1 monocytes; assay: ELISA test (Test 1), release of IL-1β into culture medium; format: cell-based, human; conditions: positive control at 100 μM, LPS 1 μg/ml for 2 hours
[2] = tested on: TNFα release from differentiated THP-1 monocytes; assay: ELISA test (Test 1), release of TNFα into culture medium; format: cell-based, human; conditions: positive control at 100 μM, LPS 1 μg/ml for 2 hours
[3] = tested on: human skeletal muscle myotubes; assay: Evaluation of the muscle-relaxant effect (Test 2), contractile activity of myotubes stimulated with carbacol; format: cell-based; conditions: myotubes with carbacol 3 mM, FIG. 5A; at least partly restored during washing
Protocol: The myoblasts were differentiated into myotubes in differentiation medium (DMEM: F12, with the addition of 2% of horse serum). The differentiated myotubes were used for the experiments from the fourth to the seventh day of maintenance in differentiation medium.
For the evaluation of the muscle-relaxant effect of MILESAX, human myoblasts were seeded onto microscope slides and, once they had reached at least about 70% confluence, they were maintained in differentiation medium for 4-7 days before being used for the experiments. The contractile activity of the myotubes was recorded with a TCS SP5 confocal microscope (Leica Microsystems) in transmitted-light mode with the 40× objective lens (HCX PL APO, 1.25 NA, Leica Microsystems) using the incubator associated with the microscope to maintain the cells under a controlled atmosphere (37° C., 5% CO2). […]
Not all the myotubes in the culture were capable of contracting, and similarly it was never possible to observe spontaneous contractions only in differentiation medium. […] The contractile activity of the identified active cell(s) was recorded with a confocal microscope in transmitted light, with an image acquired every 151 ms. […]

Row | SMILES | toxic effect on the cells (MTT test) (THP-1 cells) | release of IL-1β [1] | release of TNFα relative to vehicle/control [2] | frequency of contractions per unit time (contractions per minute) [3]
1 | O=C(O)Cc1ccccc1Nc1c(Cl)cccc1Cl [diclofenac] | no toxic effect on the cells | effective in reducing the release of IL-1β | significantly reduced the release of TNFα | –
2 | COc1c(O[C@@H]2O[C@H](CO)[C@@H](O)[C@H](O)[C@H]2O)cc2c(c1OC)-c1ccc(SC)c(=O)cc1[C@@H](NC(C)=O)CC2 [Muscoril, thiocolchicoside] | – | – | – | clear tendency
3 | CC(C)Cc1ccc(C(C)C(=O)O)cc1 (stereo not drawn) [ibuprofen] | – | no effect on the release of IL-1β | did not lead to any reduction in the release of TNFα | –
